# Key:
# eNOS = test: Expression of eNOS (Table 12); conditions: Control group 100 (%)
# PKG = PKG expression/immunoreactivity in HepG2 cells; type: cell-based
# Experimental: HepG2 cells were treated with various concentrations of targeted drugs for 24 hours. Reactions were terminated by washing twice with cold PBS, and the cells were then harvested. Proteins in the whole-cell lysate were homogenized in an ice-cold lysis buffer and a protease inhibitor (Sigma-Aldrich, St. Louis, Mo., U.S.A.). The homogenate was centrifuged at 90,000×g for 15 minutes at 4° C., and supernatant was recovered as the total cellular protein. Cytosolic and membrane fractions of HepG2 cells were prepared using a CNM (Cytosol Nuclear Membrane) compartmental protein extraction kit (BioChain Institute Inc., Hayward, Calif., U.S.A.) according to the manufacturer's instructions. All of the fractionated protein solutions were stored at −80° C. until analysis. To measure the expression levels of proteins by drugs, the total cell protein was extracted after incubation with treatments for 24 hours and then Western blotting analysis was performed as described previously.
# To determine that KMUP-1 or targeted drugs can affect PKA, we incubated KMUP-1 (10^−4, 10^−5, 10^−6 M) or targeted drugs with HepG2 cells for 24 hours to measure the protein expressions of PKA/PKG by Western blotting or PKA/PKG and HSL immunoreactivities by fluorescence staining, combined with image scanning in the absence or presence of oxidized LDL (200 μg/mL).
# SR-B1 = test: HFD-induced hepatic SR-B1 expression; type: in vivo; conditions: HFD mice; for SR-B1: CTL 100 (Table 8); for SR-B1 expression: Control 100%
# Experimental: In the experiment, C57BL/6J male mice (21-22 g), after fasting, were fed an HFD as a model of hyperlipidemia for 8 weeks. During the 2 month experiments, mice fasted for one night before the experiment was changed from a standard diet (STD) to an HFD and then the mice were randomly divided into 13 groups, including a protection group, 2 control and 10 treatment groups. Six mice were used in each group. […] Liver from the protection group supplemented with KMUP-1 HCl (1 mg/kg/day) were used to determine the HMG CoA reductase expression. Each group of mice had free access to drinking water from week 1 to week 14. Tap water was used to normalize mineral nutrition.
# For the expression of SR-B1, HMGR, PPARγ and ROCK II, isolated liver tissues were cut into small chips and placed into an extraction buffer (Tris 10 mM, pH 7.0, NaCl 140 mM, PMSF 2 mM, DTT 5 mM, NP-40 0.5%, pepstatin A 0.05 mM and leupeptin 0.2 mM) for hepatic protein extraction, and centrifuged at 20,000×g for 30 minutes. The obtained protein extract was boiled to a ratio of 4:1 with a sample buffer (Tris 100 mM, pH 6.8, glycerol 20%, SDS 4% and bromophenol blue 0.2%). Electrophoresis was performed using 10% SDS-polyacrylamide gel (1 hour, 100 V, 40 mA, 20 μg protein per lane).
# Separated proteins, after 3 repeated centrifugations to discard up-layer tissue lipid in purity, were transferred to PVDF membranes treated with 5% fat-free milk powder to block the nonspecific IgGs (90 minutes, 100 V) and incubated for 1 hour with specific protein antibody. The blot was then incubated with anti-mouse or anti-goat IgG linked to alkaline phosphatase (1:1000) for 1 hour.
# LXRα = LXRα expression in HepG2 cells; type: cell-based; conditions: 10^−9-10^−5 M
# Experimental: The HepG2 hepatoma cell line was purchased from the American Type Culture Collection (ATCC, Manassas, Va., U.S.A.). Cells were cultured in Dulbecco's Modified Eagle's Medium (DMEM). The culture media was supplemented with 5% heat-inactivated FBS, penicillin (100 U/mL) and streptomycin (100 μg/mL). Cells were grown in a humidified atmosphere containing 5% CO2 at 37° C., in which the oxygen tension in the incubator was held at 140 mmHg (20% O2, v/v; normoxic conditions). […] Then the targeted drugs solution was incubated with the cells for 24 hours, followed by protein extraction. The targeted drugs were added to the […].
# HepG2 cells were treated with various concentrations of targeted drugs for 24 hours. Reactions were terminated by washing twice with cold PBS, and the cells were then harvested. Proteins in the whole-cell lysate were homogenized in an ice-cold lysis buffer and a protease inhibitor (Sigma-Aldrich, St. Louis, Mo., U.S.A.). The homogenate was centrifuged at 90,000×g for 15 minutes at 4° C., and supernatant was recovered as the total cellular protein. […]
smiles,measurement,setting,value
"Cn1c(=O)c2c(ncn2CCN2CCN(c3ccccc3Cl)CC2)n(C)c1=O [KMUP-1, 7-[2-[4-(2-chlorophenyl)piperazinyl]ethyl]-1,3-dimethylxanthine]",eNOS expression,eNOS,155.16 ± 14.8%
same,PKG immunoreactivity,PKG; HepG2 cells (data not shown),not significantly affected
same,expression of PKG,"PKG; HepG2 cells, 10, 20, 40 μM, in the presence of LDL (500 μg/mL)",increased
same,SR-B1,SR-B1; Protection group,29%
same,SR-B1 expression,"SR-B1; drinking KMUP-1, Protection group",30%
same,SR-B1 expression,"SR-B1; drinking KMUP-1, Treatment group",59%
same,SR-B1,SR-B1; treatment 2.5 mg/200 mL drink,59%
same,LXRα expression,LXRα,concentration-dependently increased

# Source: US20190008870A1, “COMPOSITIONS AND METHODS FOR LIPID METABOLISM DISORDER” (JANSFAT BIOTECHNOLOGY CO., LTD., priority 2016, published 2019)
